Test [1] relates to Gluconoacetobacter liquefaciens. Nature of the test: Headspace carbon dioxide concentration over inoculated AIRFLEX 400 emulsion after biocide addition. It is filed as cell-based.
From the text: Sterile AIRFLEX® 400 (1600 grams) poly(vinyl alcohol) stabilized vinyl acetate/ethylene polymeric emulsion was placed in a 2L plastic Nalgene container. The plastic cover was modified with two ports. The first port was used to mount and insert the carbon dioxide sensor and the second, much smaller diameter port was left open to the atmosphere to permit venting and a constant pressure within the container. A Vaisala GMT222 direct reading carbon dioxide transmitter connected to a data logger and computer was used as the measuring device. The cover was then screwed on tightly and the headspace carbon dioxide concentration measured over the course of 3 days. During this entire monitoring period the headspace carbon dioxide concentration remained steady at approximately 400 ppm.
(§1) In an effort to determine the efficacy of carbon dioxide measurement as a detection mechanism for microbial growth, AIRFLEX 400 (1600 grams) poly(vinyl alcohol) stabilized (some biocide present) vinyl acetate/ethylene polymeric emulsion was inoculated with Gluconoacetobacter liquefaciens. The resulting concentration of Gluconoacetobacter liquefaciens in the Airflex 400 emulsion was measured via a dilution plate count on potato dextrose agar and found to be 5.4×10^4 cfu/ml. The contaminated emulsion was placed in a 2L plastic Nalgene container. The modified cover, equipped with the carbon dioxide sensor and vent hole, described in Example 1 was tightly screwed on. The headspace carbon dioxide level began rising above background (˜400 ppm) within a matter of minutes. After continually monitoring this sample for 2 days, the headspace carbon dioxide concentration leveled out at about 1600 ppm.
To the same contaminated sample described in Example 2 was added 400 ppm of dodecylguanidine hydrochloride (DGH) biocide to reduce the Gluconoacetobacter liquefaciens concentration.
(§2) The sample was then monitored for headspace carbon dioxide concentration as described in Examples 1 and 2. After continually monitoring this sample for 2 days the headspace carbon dioxide concentration leveled out at about 1150 ppm. A sample of the AIRFLEX 400 poly(vinyl alcohol) stabilized vinyl acetate/ethylene polymeric emulsion was removed from the container and the concentration of Gluconoacetobacter liquefaciens was measured on potato dextrose agar using a dilution plate count method.
as §2, with “To the same contaminated sample described in Example 3 was added an additional 375 ppm DGH to further reduce the Gluconoacetobacter liquefaciens concentration. The” for “The”, “for 3” for “for 2”, “about 1000” for “about 1150”
(§3) To the same contaminated sample described in Example 4 was added an additional 350 ppm DGH to further reduce the Gluconoacetobacter liquefaciens concentration. The sample was then monitored for headspace carbon dioxide concentration as described in Examples 1 and 2. After continually monitoring this sample for 3 days the headspace carbon dioxide concentration leveled out at about 800 ppm. A sample of the AIRFLEX 400 emulsion was removed from the container and the concentration of Gluconoacetobacter liquefaciens was measured on potato dextrose agar using a dilution plate count method.

For test [2] the test system is unchanged. Nature of the test: Dilution plate count on potato dextrose agar of inoculated AIRFLEX 400 emulsion after biocide addition. The test is classed as cell-based. Here is the method: as §1, §2
as §3, with “3” for “4”, “375” for “350”, “1000” for “800”, “400 poly(vinyl alcohol) stabilized vinyl acetate/ethylene polymeric” for “400”
as §3

[3] abbreviates: Example 3, biocide 400 ppm, time 24 hour.
The mark [4] stands for this setting: Example 4, biocide 375 ppm (additional), time 96 hour.
The mark [5] stands for this setting: Example 5, biocide 350 ppm (additional), time 96 hour.

Where a name gives a salt, the structure may show the parent alone.

The results in this text go back to patent US20040067592A1, “Process for controlling microbial contamination of polymeric emulsions using carbon dioxide detection” (priority 2002, published 2004).

Regarding `CCCCCCCCCCCCNC(=N)N` [DGH, dodecylguanidine hydrochloride], the “headspace carbon dioxide concentration leveled out” value in test [1] (Example 3: 400 ppm DGH added to contaminated AIRFLEX 400 (5.4×10^4 cfu/ml, 1600 ppm CO2 before), monitored 2 days, background ~400 ppm) is “about 1150 ppm”; in test [1] (Example 4: additional 375 ppm DGH added to Example 3 sample (400 ppm DGH), monitored 3 days) it was “about 1000 ppm”; in test [1] (Example 5: additional 350 ppm DGH added to Example 4 sample (400 + 375 ppm DGH), monitored 3 days) it was “about 800 ppm”. The CO2 in test [1] (setting [3]) is 1150 ppm; in test [1] (setting [4]), 1000 ppm; in test [1] (setting [5]), 800 ppm. Also, the “Gluconoacetobacter liquefaciens contamination level” value was 1.30×10^4 cfu/ml in test [2] (Example 3: 400 ppm DGH added to contaminated AIRFLEX 400 (5.4×10^4 cfu/ml before), after 2 days); 4.40×10^3 cfu/ml in test [2] (Example 4: additional 375 ppm DGH added to Example 3 sample (400 ppm DGH), after 3 days); 3.20×10^2 cfu/ml in test [2] (Example 5: additional 350 ppm DGH added to Example 4 sample (400 + 375 ppm DGH), after 3 days). Moreover, the Contamination in test [2] (setting [3]) was 1.3 × 10^4 CFU/ml; in test [2] (setting [4]), 4.4 × 10^3 CFU/ml; in test [2] (setting [5]), 3.2 × 10^2 CFU/ml.
